Results as given in PMC6338774 (Scientific Reports, 2019).

Tests used:
[1] = tested on: human promyelocytic leukemia HL-60 cells; assay: WST-1 cell proliferation assay, HL-60 cells; assay type: cell-based; details: WST-1, 72 h; for IC50: concentrations 50-200 µM, mean ± SD, na = not active in range tested
Procedure: (§1) Human promyelocytic leukemia HL-60 cells and human colon cancer cell line Caco-2 were obtained from the American Type Culture Collection (Manassas, VA, USA). […] (Institute of Biotechnology, Faculty of Environment and Natural Sciences, Brandenburg University of Technology Cottbus-Senftenberg, Senftenberg, Germany)[34] were cultured in DMEM medium supplemented with 10% fetal bovine serum (FBS, Invitrogen, Carlsbad, USA), 2 mM glutamine and antibiotics (complete DMEM). Cells (4 × 10^3/well) were grown for 24 h in 96-well plates (Sarstedt, Germany) in appropriate complete medium at 37 °C and atmosphere containing 5% CO2. […] After indicated periods of time, WST-1 mixture was added to each well, and the cells were cultured for additional 6 h. The absorbance at 450 nm was measured on an EnSpire 2300 Multilabel Reader (Perkin-Elmer, USA), and data were analyzed using the program EnSpire 9.0 (Perkin-Elmer, USA). The experiments were performed in triplicates and repeated at least three times independently.

[2] = tested on: human colon carcinoma Caco-2 cells; assay: WST-1 cell proliferation assay, Caco-2 cells; assay type: cell-based; details: WST-1, 72 h; for IC50: concentrations 50-200 µM, mean ± SD, na = not active in range tested
Procedure: as §1

[3] = tested on: porcine epithelial intestinal IPEC-J2 cells; assay: WST-1 cell proliferation assay, IPEC-J2 cells; assay type: cell-based; details: Sus scrofa, WST-1, 72 h, concentrations 50-200 µM, mean ± SD, na = not active in range tested
Procedure: as §1, with “independently. Results were presented as mean IC50 (concentration of the tested compound, that inhibits cell proliferation by 50%) ± standard deviation.” for “independently.”

[4] = Solubility in DMSO; assay type: physicochemical; details: the reason cytotoxicity was not tested

| Structure (SMILES) | IC50 ([1]; Homo sapiens, HL-60) [µM] | IC50 ([2]; Homo sapiens, Caco-2) [µM] | IC50 [3] [µM] | IC50 [2] [µM] | also measured |
| --- | --- | --- | --- | --- | --- |
| COc1ccc2cc(C(C)C(=O)OC[C@H](COP(=O)([O-])OCC[N+](C)(C)C)OC(=O)C(C)c3ccc4cc(OC)ccc4c3)ccc2c1 (mixture of isomers) [Compound 16, 1,2-Di-[2′-(6″-methoxynaphthalenyl)]propanoyl-sn-glycero-3-phosphocholine] | 80.1 ± 10.9 | 68.7 ± 18.4 | 58.4 ± 5.67 | – | – |
| COc1ccc2cc([C@H](C)C(=O)OC[C@@H](O)COP(=O)([O-])OCC[N+](C)(C)C)ccc2c1 [Compound 8, 1-[2′S-(6″-Methoxynaphthalenyl)]propanoyl-2-hydroxy-sn-glycero-3-phosphocholine] | – | – | – | 115 ± 26.1 | – |
| CCCCCCCCCCCCCCCC(=O)OC[C@H](COP(=O)([O-])OCC[N+](C)(C)C)OC(=O)C(C)c1ccc2cc(OC)ccc2c1 (stereo partly drawn) [Compound 13, 1-Palmitoyl-2-[2′S-(6″-methoxynaphthalenyl)]propanoyl-sn-glycero-3-phosphocholine] | – | – | – | – | solubility in DMSO [4]: poor solubility |
| CC(C)Cc1ccc([C@H](C)C(=O)OC[C@@H](O)COP(=O)([O-])OCC[N+](C)(C)C)cc1 [Compound 7, 1-[2′S-(4″-Isobutylphenyl)]propanoyl-2-hydroxy-sn-glycero-3-phosphocholine] | – | – | – | 122 ± 2.76 | concentration up to which non-toxic, HL-60 cells [1]: 200 µM |
| CCCCCCCCCCCCCCCC(=O)OC[C@H](COP(=O)([O-])OCC[N+](C)(C)C)OC(=O)C(C)c1ccc(CC(C)C)cc1 (mixture of isomers) [Compound 12, 1-Palmitoyl-2-[2′-[4″-isobutylphenyl)]propanoyl-sn-glycero-3-phosphocholine] | 77.4 ± 18.2 | 135 ± 18.2 | 79.2 ± 7.86 | – | – |
| COc1ccc2cc([C@H](C)C(=O)O)ccc2c1 [Compound 2, naproxen, reference compound] | 141 ± 8.51 | – | 78.6 ± 15.9 | – | – |
| CC(C)Cc1ccc(C(C)C(=O)OC[C@H](COP(=O)([O-])OCC[N+](C)(C)C)OC(=O)C(C)c2ccc(CC(C)C)cc2)cc1 (mixture of isomers) [Compound 15, 1,2-Di-[2′-(4″-isobutylphenyl)]propanoyl-sn-glycero-3-phosphocholine] | 64.5 ± 10.4 | 81.3 ± 17.3 | 83.4 ± 1.51 | – | – |
| CCCCCCCCCCCCCCCC(=O)O[C@H](COC(=O)C(C)c1ccc2cc(OC)ccc2c1)COP(=O)([O-])OCC[N+](C)(C)C (mixture of isomers) [Compound 10, 1-[2′-(6″-Methoxynaphthalenyl)]propanoyl-2-palmitoyl-sn-glycero-3-phosphocholine] | – | – | – | – | IC50 [1]: 27.1 ± 5.13 µM; concentration up to which non-toxic, Caco-2 cells [2]: ≤ 200 µM |
| CCCCCCCCCCCCCCCC(=O)O[C@H](COC(=O)C(C)c1ccc(CC(C)C)cc1)COP(=O)([O-])OCC[N+](C)(C)C (mixture of isomers) [Compound 9, 1-[2′-(4″-Isobutylphenyl)]propanoyl-2-palmitoyl-sn-glycero-3-phosphocholine] | – | – | – | 125 ± 3.87 | IC50 [1]: 67.1 ± 10.9 µM |
| CC(C)Cc1ccc(C(C)C(=O)O)cc1 (centres unmarked) [Compound 1, ibuprofen, reference compound] | 106 ± 17.4 | 114 ± 10.4 | 155 ± 7.57 | – | concentration up to which non-toxic, HL-60 cells [1]: ≤ 100 µM |
